Measurements taken from US12642795B2, “MRGPRX2 antagonist for the treatment of pseudo allergic reactions” (The University of Hong Kong, priority 2021, dated 2026).

What was measured:
[1] = test system: Human LAD-2 mast cells; test: β-Hexosaminidase MCs degranulation assay; type: cell-based; details: LAD2, LAD-2 MCs, followed by EC90 concentration (10 μM) of C48/80
Method: Human LAD-2 mast cells were seeded at 2×10^4 cells/well/80 μL in a 96-well plate. A 10× stock of antagonist were prepared in HEPES buffer (HEPES (10 mM), NaCl (137 mM), KCl (2.7 mM), Na2HPO4·7H2O (0.4 mM), glucose (5.6 mM), CaCl2·2H2O (1.8 mM), MgSO4·7H2O (1.3 mM), bovine serum albumin (0.04%), pH 7.4). […] The plate was spun at 450×g for 5 minutes at room temperature, and 50 μL of supernatant was aliquoted to a new 96 well plate. The cells were lysed with 100 μL of 0.1% Triton X-100, and 50 μL of lysate was aliquoted to another 96 well plates. A 1.3 mg/ml solution of the substrate PNAG (4-Nitrophenyl N-acetyl-β-D-glucosaminide) was prepared in 0.1 M citric acid/sodium citrate buffer (pH 4.5, 24.087 g/L Sodium Citrate dihydrate, and 3.471 g/L Citric Acid). 50 μL of PNAG was added to each well of supernatant and lysate, and cells were incubated for 90 min at 37° C. (without CO2). The reaction was stopped by adding 50 μL of 0.4 M Glycine buffer. The extent of yellow color was measured at 405 nm using Victor 4× plate reader (PerkinElmer), and percentage MCs degranulation (β-hexosaminidase release) was calculated by using the formula; % MCs degranulation: […]

[2] = test system: C57/BL/6N mice; test: In-vivo systemic anaphylaxis mice model (C48/80 induced); parameters: species or system mouse; details: 5 mg/kg intraperitoneally, C48/80 8 mg/kg intraperitoneally
Method: Animals (C57/BL/6N aged 6-8 weeks old, n=6-8/group) were transported to the procedure area the day before injections to minimize stress. The antagonists (GE0117, GE1109, or GE1111) or vehicle was injected intraperitoneally, and mice were kept in the cage for 30 minutes. After 30 minutes of saline (negative control), 8 mg/kg of C48/80 was injected intraperitoneally. The volume of intraperitoneal injection was 10 ml/kg body weight as per AAALAC guidelines. The injection site was swabbed with cotton soaked in 70% alcohol, and the mouse was placed in a separate cage as one mouse per cage. Body core temperature was measured before (basal) and after the injections with an IR non-contact thermometer for one hour. Also, mice were monitored for anaphylaxis symptoms/severity and scored from 0-5 for 1 h or until death following C48/80 injection, whichever was first. Briefly, the scoring system was followed as 0, no symptoms; 1, scratching and rubbing around the nose and head; 2, puffiness around the eyes and mouth, diarrhea, pilar erecti, reduced activity, and/or decreased activity with an increased respiratory rate; 3, wheezing, labored respiration, and cyanosis around the mouth and the tail; 4, no activity after prodding or tremor and convulsion; 5, death. The body core temperature and anaphylaxis score were plotted using Graph Pad Prism.

[3] = test system: Human LAD-2 MCs; test: Intracellular Ca2+ flux assay (Fluo-4 NW); type: cell-based; details: LAD2 MCs; for efficacy in Ca2+ flux reduction at 12.5 μM, 25 μM and 50 μM: ****P<0.0001 vs C48/80; for reduction of C48/80 induced Ca2+ flux: C48/80 EC90 concentration
Method: The intracellular Ca^2+ flux was measured in human LAD-2 MCs by using the Fluo-4 NW calcium assay kit and the protocol according to the manufacturer (Molecular Probe, Invitrogen, USA). Briefly, LAD-2 cells were plated in a 96-well black well plate (SPL Life Sciences) at a density of 1×10^5 cells/well/40 μL in assay buffer and incubated for 1 h at 37° C. incubators. After 1 h, 40 μL of the 2× dye loading solution and antagonist or buffer was added to the cells (10 μL of 10× stock). […] After one hour of incubation, a graded concentration of agonist or buffer was added to the cells (10 μL of 10× stock). The fluorescence was measured at an excitation wavelength of 494 nm and an emission wavelength of 516 nm using Victor 4× plate reader (PerkinElmer) for 150 seconds. The ΔF was calculated by […] and plotted by using Graph Pad Prism.

[4] = test system: human LAD2 MCs; test: Monocyte chemoattractant protein-1 (MCP-1) measurement by ELISA; type: cell-based; details: 12.5 μM, 25 μM and 50 μM; compared to C48/80 control
Method: MCP-1 and PGD2 were measured from human LAD2 MCs via individual ELISA kits. Briefly, MCs were seeded at a density of 1.5×10^5 cells/80 μL/well in a 96 well plate in complete Stem-Pro 34 media. […] The cells were centrifuged to collect the supernatant and stored at −80° C. until analyzed. […] After 24 hours, cells were centrifuged to discard the media and lysed with 0.1M potassium phosphate via sonication. The supernatant of cell lysate was collected and stored at −80° C. until analyzed. MCP-1 (Abcam, Cambridge, UK) and PGD2 (Cayman Chemicals, MI, USA) were quantified by ELISA according to manufacturer instruction.

[5] = test system: C57/BL/6N mice; test: In-vivo local anaphylaxis/pseudo allergic mice model (C48/80 induced); parameters: species or system mouse; details: 5 mg/kg intraperitoneally, vs C48/80 mice; for increase in paw thickness: 15 min after C48/80 (30 μg/ml) in paw; for Evans blue dye extravasation: 15 min after C48/80 (30 μg/ml)
Excerpt: Young adult male mice (C57/BL/6N aged 6-8 weeks old, n=6/group) were used to measure the local anaphylaxis activity by measuring Evans blue tissue extravasation in paw and ear tissue. The animal experiments were approved by the Committee on the Use of Live Animals in Teaching and Research (CULATR) (Animal ethical approval number CULATR 5125-19). Mice were anesthetized via intraperitoneal injection of ketamine and xylazine, and paw thickness was measure using a Vernier caliper. The antagonists (GE0117, GE1109, and GE1111) were injected at a dose of 5 mg/kg body weight via intraperitoneal injection followed by a tail vein injection of 50 μL 12.5% Evans blue in saline (irrespective of the bodyweight). After thirty minutes, C48/80 (10 μL of 30 μg/ml) was injected into one paw and ear, while saline was injected into the other paw and ear as a negative control. After fifteen minutes, the paw and ear tissue were photographed, and the paw thicknesses were measured again to calculate % increase in paw thickness. Mice were euthanized by cervical dislocation under anesthesia, and the collected paw and ear tissues were dried at 50° C. for 24 hours and weighed separately. Evans blue was extracted with formamide (500 μL/tissue) by incubating at 50° C. for 24 h. The supernatant was aliquoted into 96-well plates (200 μL/well, duplicate), and OD was measure at 595 nm using a Victor 4× plate reader (PerkinElmer). The paw edema/inflammation was measured as % increase in paw thickness=

[6] = target: T1, MRGPRX2 (Homo sapiens, UniProt Q96LB1); test: MRGPRX2 activation assay (PRESTO-Tango assay); type: cell-based; details: MRGPRX2-Tango transfected HTLA cells, followed by EC90 concentration (10 μM) of C48/80
T1 construct: expressed in transfected cells; host or cells: HTLA cells
T1 sequence (Q96LB1 1-330): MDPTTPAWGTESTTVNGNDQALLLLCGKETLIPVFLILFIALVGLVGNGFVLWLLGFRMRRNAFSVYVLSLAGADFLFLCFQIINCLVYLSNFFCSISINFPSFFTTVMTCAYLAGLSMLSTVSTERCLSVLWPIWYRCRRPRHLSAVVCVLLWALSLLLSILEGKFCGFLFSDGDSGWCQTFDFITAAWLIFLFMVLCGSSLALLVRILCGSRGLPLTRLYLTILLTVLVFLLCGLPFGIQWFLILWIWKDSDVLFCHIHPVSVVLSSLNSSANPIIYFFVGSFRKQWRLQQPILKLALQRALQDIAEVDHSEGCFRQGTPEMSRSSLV
Method: On day 1 of the experiment, HTLA cells were seeded at 1×10^6 cells per 100 mm cell culture dish for transfection. On the following day (day 2), HTLA cells were transfected with Tango MRGPRX2 DNA using the Lipofectamine transfection reagent (Thermo Fischer Scientific). On day 3, Tango MRGPRX2 transfected cells were transferred into 96-well white clear-bottom cell culture plates at a density of 2×10^4 cells/well/80 μL (PerkinElmer Life Science).

| SMILES | IC50 [1] [µM] | C48/80 induced body temperature change at 35 minutes [2] | efficacy in Ca2+ flux reduction at 12.5 μM, 25 μM and 50 μM [3] | reduction of C48/80 induced Ca2+ flux [3] | inhibition of C48/80 induced MCP-1 release [4] | increase in paw thickness [5] | Evans blue dye extravasation [5] | IC50 [6] [µM] |
| --- | --- | --- | --- | --- | --- | --- | --- | --- |
| COC(=O)c1ccc2cc(-c3cc4c5c(cccc5c3)C(=O)N(C)C4=O)c(NC(N)=O)cc2c1 [GE0117] | 20.8 | significantly reversed the body temperature change | higher efficacy at all three concentrations | significant concentration-dependent reduction | significantly inhibits the release of MCP-1 at all the tested concentrations | significantly (***P<0.001) attenuated | significantly (***P<0.001) attenuated | 9.79 |
| COC(=O)c1ccc2cc(-c3cc4c5c(cccc5c3)C(=O)N(C)C4=O)c(C(=O)OC)cc2c1 [GE0118] | 18.2 |  |  | significant concentration-dependent reduction |  |  |  | 8.91 |
| COC(=O)c1cc2cc(NC(N)=O)ccc2cc1-c1cc2c3c(cccc3c1)C(=O)N(C)C2=O [GE0119] | 25.5 |  |  | significant concentration-dependent reduction |  |  |  | 20.1 |
| COC(=O)c1ccc2cc(-c3cc4c5c(c(O)ccc5c3)C(C)C(C=O)=C4)c(C(=O)OC)cc2c1 (stereo not drawn) [GE1110] | 23.4 |  | higher efficacy at all three concentrations | significant concentration-dependent reduction |  |  |  | 8.93 |
| O=c1c(-c2ccc(O)cc2)coc2cc(O)cc(O)c12 [genistein, reference compound] | 30.3 | significantly reversed the body temperature change |  | significant (**P<0.001) Ca^2+ flux reduction at 50 μM concentration only |  | significant (*P<0.05) antagonizing activity | significant (*P<0.05) antagonizing activity | 31.7 |
